In PubChem BioAssay (NCI):
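The compound was tested at five concentrations on cells cultured in 96-well plates, with a 48-hour exposure period. GI50 = concentration required for 50% inhibition of growth. TGI: total growth inhibition.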

Key:
Test in all cases: inhibition of tumour cell growth, NCI panel, 48 h
[1] = system: MCF7 breast
[2] = system: KM12 colon
[3] = system: IGROV1 ovarian
[4] = system: UO-31 renal
[5] = system: OVCAR-3 ovarian
[6] = system: SF-539 CNS
[7] = system: SNB-19 CNS
[8] = system: MDA-MB-231 breast
[9] = system: A498 renal
[10] = system: OVCAR-8 ovarian

SMILES	GI50 [1] [µM]	TGI [1] [µM]	GI50 [2] [µM]	TGI [2] [µM]	GI50 [3] [µM]	TGI [3] [µM]	GI50 [4] [µM]	TGI [4] [µM]	GI50 [5] [µM]	TGI [5] [µM]	GI50 [6] [µM]	TGI [6] [µM]	GI50 [7] [µM]	TGI [7] [µM]	GI50 [8] [µM]	TGI [8] [µM]	GI50 [9] [µM]	TGI [9] [µM]	GI50 [10] [µM]	TGI [10] [µM]
CCN(CCCN(C)C)Cc1cc(I)cc(C)c1O	17.4	35.8	20	44.7	19.8	45.4	35.6	> 100	26.7	> 100	14.8	29	26.9	63.1	26.8	91	20.4	38.6	34.2	> 100
O=C(Nc1ccc2[nH]nc(-c3ccncc3)c2c1)[C@@H]1CCN(CC(=O)N2CCN(c3ccc(-c4ncccn4)cc3)CC2)C1	> 100	> 100	0.431	> 100	0.964	> 100			> 100	> 100	5.1	31.3	> 100	> 100	0.0528	> 100	0.0778	0.533	3.65	> 100
CC1=CC(=O)C2=C(C)CCC3C(C)C(=O)OC3C12 (stereo unspecified)		> 100		> 100		> 100		> 100		> 100		> 100		> 100		> 100		> 100		> 100
CC(C)C1=CC(=O)C(C)(C2C(O)CC3(C)C4CC=C5C(CCC(OC6OC(CO)C(O)C(O)C6OC6OC(C)C(O)C(O)C6O)C5(C)C)C4(C)C(=O)CC23C)O1 (stereo unspecified)		> 100		> 100		> 100		> 100		> 100		> 100		> 100		> 100		> 100		> 100
O=c1[nH]c2ccccc2c2ccccc12	> 100	> 100	> 100	> 100	> 100	> 100	70.9	> 100	> 100	> 100	> 100	> 100	> 100	> 100	> 100	> 100	44.7	> 100	> 100	> 100
CC(N)C(Cc1ccc(Cl)cc1)c1ccc(Cl)cc1 (stereo unspecified)	2.99	12.5	8.48	22.6	4.89	18.7	7.12	20.9	13.8	27.5	13.3	26.8	14.1	29.5	4.26	16.8	15.1	30.7	20.4	52.8
CCCCCCCCCCCCOC1C(CNC(=O)C2OC3OC(C)(C)OC3C2NC(=O)Nc2ccc(CC(=O)OC)cc2)OC2OC(C)(C)OC21 (stereo unspecified)	> 100	> 100	> 100	> 100	> 90.9	> 100	> 100	> 100	> 100	> 100	> 100	> 100	> 100	> 100	8.43	> 82	> 100	> 100	> 100	> 100
Cc1cccc(N(C)C(=O)[C@@H]2[C@H](O)CCN2c2nc(C)cc(C(F)(F)F)c2C#N)c1	26.1	> 100	28.2	> 100	26.5	94.5	14.8	29.5	15.2	81.3	15.9	32.2	31.1	> 100	19.3	46	21.9	69.8	28.1	> 100
O=Nc1ccc(O)c(=O)cc1	2.73	14	5.99	16.3	3.77	11.3	1.15	2.69	1.39	5.07	2.67	7.48	13.5	27.3	2.31	8.79	4.89	28.6	2.82	11
O=S(=O)(NCCCNc1nccc(-c2c(-c3ccc(O)cc3)nc3sccn23)n1)c1ccc(F)cc1	2.16	5.91	2.02	5.46	2.85	8.78	2.33	7.3	2.66	12.1	2.04	13.9	4.27	> 100	1.82	> 100	1.55	5.16	1.57	13.3
COc1ccc2c(c1)/C(=C\c1c(-c3cc(OC)ccc3OC)nc3sc(C)cn13)C(=O)N2C	28.3	> 100	37.7	> 100	19.4	> 100	16.8	> 100	15.6	54.5	32.9	> 100	58.9	> 100	16.7	96.7	27.2	98.7	28.2	> 100
O=C(Cc1ccc(/C=C/C(=O)c2ncc[nH]2)cc1)Nc1ccc(F)cc1	0.995	4.62	2.1	7.91	2.66	13.9	2.64	7.06	1.7	6.01	0.845	2.66	1.58	14.9	1.83	10.3	8.92	22.9	5.08	> 33.3
NS(=O)(=O)c1ccc(Nc2cc(-c3cccc(O)c3)[nH]n2)cc1	> 25	> 25	> 23.7	> 25	> 25	> 25	> 25	> 25	16.2	> 25	20.5	> 25	> 25	> 25	18	> 25	> 25	> 25	> 22.6	> 25
Fc1cccc(COc2ccc(Nc3ncnc4sc(-c5cccs5)cc34)cc2Cl)c1	0.75	8.42	4.07	> 25	8.73	> 25	5.78	> 24.1	0.77	6.24	5.55	15.3	5.33	12	5.73	16.4	6.88	> 21.7	5.5	> 17.4
CS(=O)(=O)Nc1cncc(-c2ccc3ncnc(Nc4ccc(F)c(Cl)c4)c3c2)c1	1.49	8.77	3.49	13.3	0.34	1.91	1.76	13.8	1.58	7.19	2.24	11.3	2.09	18.1	2.92	17.6	0.57	3.2	3.73	23.7
Cc1nc2ccc(Nc3nc(Cl)nc(N4CCOCC4)n3)cc2n1Cc1ccccc1	18.4	> 100	> 100	> 100	2.58	6.41	8.89	> 100	4.19	36	14.2	47.6	18.2	> 100	2.22	9.44	2.85	> 100	2.95	> 100
CC(=O)Nc1ccc2c(c1)C(c1ccccc1Cl)=Nc1c(n[nH]c1C)N2	2.26	> 25	0.253	> 25	5.66	> 24	5.63	> 22.5	9.06	> 25	0.999	12.5	6.36	> 25	> 17.1	> 25	0.746	6.99	13.4	> 25
COc1cc(C2Cc3ncccc3-c3[nH]c(=O)c4cccnc4c32)cc(OC)c1OC (stereo unspecified)	0.277	> 100	0.373	> 100	0.46	> 100	0.819	> 100	0.323	5.49	0.269	1.55	0.823	> 100	3.88	> 100	0.363	13.5	0.97	> 100
O=C(Oc1cccc2cccnc12)c1cc2c(cc1Cl)SC(N(c1ccc(F)cc1)S(=O)(=O)c1ccc(Br)s1)=NS2(=O)=O	21.3	44	44.2	> 100	60.3	> 100	34.2	> 100	8.16	66.4	23.4	75.2	28.8	> 100	23.6	> 100	34.9	> 100		
